Test results: US20240246946A1, “MODULATORS OF TREX1” (Constellation Pharmaceuticals, Inc., priority 2021, published 2024)

Key:
[1] = molecular target: T1, full length mouse TREX1 (Mus musculus, UniProt Q91XB0); assay: mTREX1 Biochemical Assay (fluorescence, dsDNA substrate degradation); settings: biochemical, read-out: mTREX1 IC50
T1 construct: N-terminally His-Tev tagged full length mouse TREX1; made in house; host or cells: E. coli
T1 sequence (Q91XB0 1-314): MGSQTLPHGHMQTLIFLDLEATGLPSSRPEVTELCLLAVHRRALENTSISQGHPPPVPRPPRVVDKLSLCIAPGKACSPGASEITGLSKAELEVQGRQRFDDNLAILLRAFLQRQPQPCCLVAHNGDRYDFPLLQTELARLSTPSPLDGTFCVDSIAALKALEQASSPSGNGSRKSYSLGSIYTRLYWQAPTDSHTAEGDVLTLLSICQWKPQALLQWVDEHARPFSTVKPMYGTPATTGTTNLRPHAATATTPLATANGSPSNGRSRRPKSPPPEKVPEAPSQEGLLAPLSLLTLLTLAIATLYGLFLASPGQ
Procedure, shortened: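 Reaction run 18 h at 25° C. with 60 nM TEX615/quencher-labelled dsDNA and 6 pM mouse TREX1 in Tris buffer (pH 7.4, 5 mM MgCl2, 1.0% DMSO), enzyme having sat 4 h with compound across 10 concentrations. EDTA quench; substrate degradation measured as fluorescence increase.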

[2] = molecular target: T2, full length human TREX1 (Homo sapiens, UniProt Q9NSU2); assay: hTREX1 Biochemical Assay (fluorescence, dsDNA substrate degradation); settings: biochemical, read-out: hTREX1 IC50
T2 construct: N-terminally His-Tev tagged full length human TREX1; made in house; host or cells: E. coli
T2 sequence (Q9NSU2 1-314): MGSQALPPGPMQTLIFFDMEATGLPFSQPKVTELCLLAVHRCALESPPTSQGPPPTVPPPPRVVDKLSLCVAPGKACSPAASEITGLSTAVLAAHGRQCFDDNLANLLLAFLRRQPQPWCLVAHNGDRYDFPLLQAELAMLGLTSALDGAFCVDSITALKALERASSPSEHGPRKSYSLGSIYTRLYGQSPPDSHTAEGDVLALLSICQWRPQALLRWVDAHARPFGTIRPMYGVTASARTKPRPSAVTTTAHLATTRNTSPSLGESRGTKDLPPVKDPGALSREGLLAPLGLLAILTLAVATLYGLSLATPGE
Procedure, shortened: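 Fluorescence rises as enzyme degrades a quenched TEX615-labelled dsDNA substrate (60 nM) in 50 mM Tris, 150 mM NaCl, 5 mM MgCl2, pH 7.4. Full-length His-Tev-tagged human TREX1, 4 pM, sits with compound 4 hours at 25° C before substrate; reaction 18 hours, stopped with EDTA.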

[3] = molecular target: T3, human TREX2 (residues M44-A279) (Homo sapiens, UniProt Q9BQ50); assay: hTREX2 Biochemical Assay (fluorescence, dsDNA substrate degradation); settings: biochemical selectivity for hTREX1 vs hTREX2
T3 construct: human TREX2 (residues M44-A279, expressed in E. coli); made in house; host or cells: E. coli
T3 sequence (Q9BQ50 44-279 isoform Q9BQ50-1): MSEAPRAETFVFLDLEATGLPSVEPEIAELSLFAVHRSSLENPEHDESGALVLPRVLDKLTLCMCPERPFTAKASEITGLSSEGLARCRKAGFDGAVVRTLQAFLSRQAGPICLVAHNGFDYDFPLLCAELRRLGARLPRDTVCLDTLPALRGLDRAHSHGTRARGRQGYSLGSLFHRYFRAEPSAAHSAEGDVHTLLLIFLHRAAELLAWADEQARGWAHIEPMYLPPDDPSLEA
Protocol: Degradation of the dsDNA liberates free fluorophore to produce a fluorescent signal. Specifically, 7.5 μL of N-terminally His-Tev tagged human TREX2 (residues M44-A279, expressed in E. coli and purified in house) in reaction buffer (50 mM Tris, 150 mM NaCl, 2 mM DTT, 0.1 mg/mL BSA, 0.01% (w/v) Tween-20, 5 mM MgCl2, pH 7.4) was added to a 384-well Black ProxiPlate Plus (PerkinElmer) which already contained compound (150 nL) at varying concentrations as a 10 point dose-response in DMSO. The plate was incubated at 25° C. for 4 hours. Reactions were initiated by adding 7.5 μL of dsDNA substrate (Strand A: 5′ TEX615/GCT AGG CAG 3′; Strand B: 5′ CTG CCT AGC/IAbRQSp (IDT)) in reaction buffer. Final concentrations were 50 pM TREX2, 60 nM dsDNA substrate in reaction buffer with 1.0% DMSO (v/v). After 18 hours at 25° C., reactions were quenched by the addition of 2 μL of 500 mM EDTA. Final concentrations in the quenched reaction mixture were 44 pM TREX2, 53 nM DNA and 59 mM EDTA in a volume of 17 μL. After a 5-minute incubation at room temperature, plates were read in an EnVision plate reader (PerkinElmer) measuring fluorescence at 615 nm following excitation w/570 nm light.

SMILES | IC50 [1] | IC50 [2] | hTREX1 vs hTREX2 selectivity [3]
CC(c1nc(C(=O)Nc2cnoc2)c(O)c(=O)n1C)C(c1ccccc1C#N)c1ccnn1C (single isomer, unassigned) [Example 1 D1E2] | > 10 nM | > 10 nM | A (A = <25 fold selective for hTREX1)
CC(c1nc(C(=O)Nc2cnoc2)c(O)c(=O)n1C)C(c1cnn(C)c1)c1cccnc1C#N (single isomer, unassigned) [Example 7 D2E2] | > 10 nM | > 10 nM | B (B = 25 to 50-fold selective for hTREX1)
CC(c1nc(C(=O)Nc2cnoc2)c(O)c(=O)n1C)C(c1cnn(C)c1)c1ccc(C(=O)N(C)C)cc1C#N (single isomer, unassigned) [Example 11 D1E2] | > 10 nM | > 10 nM | B (B = 25 to 50-fold selective for hTREX1)
COCCn1cc(C(c2ccccc2C#N)C(C)c2nc(C(=O)Nc3cnoc3)c(O)c(=O)n2C)c(C)n1 (single isomer, unassigned) [Example 71 D2E1] | > 10 nM | > 10 nM | 
CCn1cc(C(c2cc(F)c(F)cc2Cl)C(C)c2nc(C(=O)Nc3cnoc3)c(O)c(=O)n2C)cn1 (single isomer, unassigned) [Example 72 D1E1] | 1 to 10 nM | < 1 nM | 
CCn1cc(C(c2cc(F)c(F)cc2Cl)C(C)c2nc(C(=O)Nc3cnoc3)c(O)c(=O)n2C)cn1 (single isomer, unassigned) [Example 72 D2E1] | > 10 nM | > 10 nM | 
COCCn1cc(C(c2cc(F)c(F)cc2Cl)C(C)c2nc(C(=O)Nc3cnoc3)c(O)c(=O)n2C)cn1 (single isomer, unassigned) [Example 73 D2E2] | > 10 nM | > 10 nM | 
Cc1nn(C)c(C)c1C(c1ccccc1C#N)C(C)c1nc(C(=O)Nc2cnoc2)c(O)c(=O)n1C (single isomer, unassigned) [Example 78 D2E2] | > 10 nM | > 10 nM | 
Cc1cnn(C)c1C(c1ccccc1C#N)C(C)c1nc(C(=O)Nc2cnoc2)c(O)c(=O)n1C (single isomer, unassigned) [Example 84 D1E2] | > 10 nM | > 10 nM | 
CC(c1nc(C(=O)Nc2cnoc2)c(O)c(=O)n1C)C(c1cnn(C2COC2)c1)c1ccccc1C#N (single isomer, unassigned) [Example 106 D2E2] | > 10 nM | > 10 nM | 
Cc1cc(C(c2cc(F)ccc2Cl)C(C)c2nc(C(=O)Nc3cnoc3)c(O)c(=O)n2C)n(C)n1 (single isomer, unassigned) [Example 113 D2E2] | > 10 nM | > 10 nM | 
Cc1cnc(C)c(C(c2ccccc2Cl)C(C)c2nc(C(=O)Nc3cnoc3)c(O)c(=O)n2C)n1 (single isomer, unassigned) [Example 120 D2E1] | > 10 nM | > 10 nM | 
Cc1cnc(C)c(C(c2cc(F)ccc2Cl)C(C)c2nc(C(=O)Nc3cnoc3)c(O)c(=O)n2C)n1 (single isomer, unassigned) [Example 121 D2E2] | > 10 nM | > 10 nM | 
Cc1nc(C)c(C(c2ccccc2C#N)C(C)c2nc(C(=O)Nc3cnoc3)c(O)c(=O)n2C)nc1C (single isomer, unassigned) [Example 122 D2E2] | > 10 nM | > 10 nM | 
CC(c1nc(C(=O)Nc2cnoc2)c(O)c(=O)n1C)C(c1ccccc1C#N)c1nnnn1C (single isomer, unassigned) [Example 131 D2E2] | > 10 nM | > 10 nM | 
CC(=O)N(C)c1nn(C)cc1C(c1ccccc1C#N)C(C)c1nc(C(=O)Nc2cnoc2)c(O)c(=O)n1C (single isomer, unassigned) [Example 153 D1E1] | > 10 nM | > 10 nM | 

Further lines, with some results ahead:

IC50 [1] | IC50 [2] | SMILES | hTREX1 vs hTREX2 selectivity [3]
> 10 nM | > 10 nM | CC(c1nc(C(=O)Nc2cnoc2)c(O)c(=O)n1C)C(c1ccccc1C#N)c1ccnn1C (single isomer, unassigned) [Example 1 D2E2] | B (B = 25 to 50-fold selective for hTREX1)
> 10 nM | > 10 nM | Cc1ccc(C(c2ccccc2C#N)C(C)c2nc(C(=O)Nc3cnoc3)c(O)c(=O)n2C)cn1 (single isomer, unassigned) [Example 5 D2E1] | B (B = 25 to 50-fold selective for hTREX1)
> 10 nM | > 10 nM | COCCn1cc(C(c2ccccc2C#N)C(C)c2nc(C(=O)Nc3cnoc3)c(O)c(=O)n2C)c(C)n1 (single isomer, unassigned) [Example 71 D1E2] | 
> 10 nM | > 10 nM | COCCn1cc(C(c2ccccc2C#N)C(C)c2nc(C(=O)Nc3cnoc3)c(O)c(=O)n2C)c(C)n1 (single isomer, unassigned) [Example 71 D2E2] | 
> 10 nM | > 10 nM | CCn1cc(C(c2cc(F)c(F)cc2Cl)C(C)c2nc(C(=O)Nc3cnoc3)c(O)c(=O)n2C)cn1 (single isomer, unassigned) [Example 72 D1E2] | 
> 10 nM | > 10 nM | CCn1cc(C(c2cc(F)c(F)cc2Cl)C(C)c2nc(C(=O)Nc3cnoc3)c(O)c(=O)n2C)cn1 (single isomer, unassigned) [Example 72 D2E2] | 
> 10 nM | > 10 nM | COCCn1cc(C(c2cc(F)c(F)cc2Cl)C(C)c2nc(C(=O)Nc3cnoc3)c(O)c(=O)n2C)cn1 (single isomer, unassigned) [Example 73 D1E2] | 
> 10 nM | > 10 nM | COCCn1cc(C(c2cc(F)c(F)cc2Cl)C(C)c2nc(C(=O)Nc3cnoc3)c(O)c(=O)n2C)cn1 (single isomer, unassigned) [Example 73 D2E1] | 
> 10 nM | > 10 nM | CC(c1nc(C(=O)Nc2cnoc2)c(O)c(=O)n1C)C(c1cnn(C)c1)c1ccc(O)cc1C#N (single isomer, unassigned) [Example 80 D2E1] | 
> 10 nM | > 10 nM | Cc1cc(C(c2cc(F)ccc2C#N)C(C)c2nc(C(=O)Nc3cnoc3)c(O)c(=O)n2C)n(C)n1 (single isomer, unassigned) [Example 111 D1E1] | 
> 10 nM | > 10 nM | Cc1cnc(C(c2cc(F)ccc2C#N)C(C)c2nc(C(=O)Nc3cnoc3)c(O)c(=O)n2C)cn1 (single isomer, unassigned) [Example 115 D2E1] | 
> 10 nM | > 10 nM | Cc1cnc(C(c2ccccc2Cl)C(C)c2nc(C(=O)Nc3cnoc3)c(O)c(=O)n2C)cn1 (single isomer, unassigned) [Example 116 D2E2] | 
> 10 nM | > 10 nM | Cc1ncc(C(c2ccccc2Cl)C(C)c2nc(C(=O)Nc3cnoc3)c(O)c(=O)n2C)nc1C (single isomer, unassigned) [Example 125 D2E2] | 
> 10 nM | > 10 nM | CC(c1nc(C(=O)Nc2cnoc2)c(O)c(=O)n1C)C(c1ccccc1C#N)c1nnnn1C (single isomer, unassigned) [Example 131 D1E2] | 
> 10 nM | > 10 nM | CC(c1nc(C(=O)Nc2cnoc2)c(O)c(=O)n1C)C(c1cnn(C(F)(F)F)c1)c1ccccc1C#N (single isomer, unassigned) [Example 151 D2E2] | 
